Biological target: T1, ATM protein immunoprecipitated from HeLa cell nuclear extract (Homo sapiens, UniProt Q13315)
T1 construct: ATM protein was immunoprecipitated from HeLa cell nuclear extract; endogenous in cells; host or cells: HeLa cell nuclear extract (immunoprecipitated with rabbit polyclonal anti-ATM antiserum)
Test: In vitro ATM inhibition assay (phosphorylation of GSTp53N66 on serine 15, chemiluminescent detection); further: tested normally from 100 µM down to 0.1 nM
Assay type: biochemical
Conditions: read-out: IC50 values (the concentration at which 50% of the enzyme activity is inhibited), ATM inhibition
Description: In order to assess the inhibitory action of the compounds against ATM in vitro, the following assay was used to determine IC50 values. ATM protein was immunoprecipitated from HeLa cell nuclear extract using rabbit polyclonal anti-sera raised to the C-terminal ˜500 amino-acid residues of the human ATM protein. […] 10 μl of immunoprecipitated ATM in Buffer C (50 mM Hepes, pH 7.4, 6 mM MgCl2, 150 mM NaCl, 0.1 mM sodium orthovanadate, 4 mM MnCl2, 0.1 mM dithiothreitol, 10% glycerol) was added to 32.5 μl of buffer C containing 1 μg of the ATM substrate GSTp53N66 in a V-bottomed 96 well polypropylene plate. The GSTp53N66 substrate is the amino terminal 66 amino acid residues of human wild type p53 fused to glutathione S-transferase. […] Varying concentrations of inhibitor were then added. […] After 10 minutes of incubation at 37° C., the reactions were initiated by the addition of 5 μl of 500 μM Na-ATP. After 1 hour with shaking at 37° C., 150 μl of phosphate buffered saline (PBS) was added to the reaction and the plate centrifuged at 1500 rpm for 10 minutes. 5 μl of the reaction was then transferred to a 96 well opaque white plate containing 45 μl of PBS to allow the GSTp53N66 substrate to bind to the plate wells. The plate was covered and incubated at room temperature for 1 hour with shaking before discarding the contents. The plate wells were washed twice by the addition of PBS prior to the addition of 3% (w/v) bovine serum albumin (BSA) in PBS. The plate was incubated at room temperature for 1 hour with shaking before discarding the contents and washing twice with PBS. To the wells, 50 μl of a 1:10,000 dilution of primary phosphoserine-15 antibody (Cell Signaling Technology, #9284L) in 3% BSA/PBS was added to detect the phosphorylation event on the serine 15 residue of p53 elicited by the ATM kinase. […] The wells were then washed four times with PBS before the addition of chemiluminescence reagent (NEN Renaissance, NEL105). The plate was then shaken briefly, covered with a transparent plate seal and transferred to a TopCount NXT for chemiluminescent counting. Counts per second, following a one second counting time, were recorded for each reaction.
The enzyme activity for each compound is then calculated using the following equation:
[formula] Results In vitro ATM assays
Compounds were assayed for ATM inhibition activity using the method described above. […] These are determined over a range of different concentrations, normally from 100 μM down to 0.1 nM. Such IC50 values are used as comparative values to identify increased compound potencies.

T1 sequence (Q13315 whole entry): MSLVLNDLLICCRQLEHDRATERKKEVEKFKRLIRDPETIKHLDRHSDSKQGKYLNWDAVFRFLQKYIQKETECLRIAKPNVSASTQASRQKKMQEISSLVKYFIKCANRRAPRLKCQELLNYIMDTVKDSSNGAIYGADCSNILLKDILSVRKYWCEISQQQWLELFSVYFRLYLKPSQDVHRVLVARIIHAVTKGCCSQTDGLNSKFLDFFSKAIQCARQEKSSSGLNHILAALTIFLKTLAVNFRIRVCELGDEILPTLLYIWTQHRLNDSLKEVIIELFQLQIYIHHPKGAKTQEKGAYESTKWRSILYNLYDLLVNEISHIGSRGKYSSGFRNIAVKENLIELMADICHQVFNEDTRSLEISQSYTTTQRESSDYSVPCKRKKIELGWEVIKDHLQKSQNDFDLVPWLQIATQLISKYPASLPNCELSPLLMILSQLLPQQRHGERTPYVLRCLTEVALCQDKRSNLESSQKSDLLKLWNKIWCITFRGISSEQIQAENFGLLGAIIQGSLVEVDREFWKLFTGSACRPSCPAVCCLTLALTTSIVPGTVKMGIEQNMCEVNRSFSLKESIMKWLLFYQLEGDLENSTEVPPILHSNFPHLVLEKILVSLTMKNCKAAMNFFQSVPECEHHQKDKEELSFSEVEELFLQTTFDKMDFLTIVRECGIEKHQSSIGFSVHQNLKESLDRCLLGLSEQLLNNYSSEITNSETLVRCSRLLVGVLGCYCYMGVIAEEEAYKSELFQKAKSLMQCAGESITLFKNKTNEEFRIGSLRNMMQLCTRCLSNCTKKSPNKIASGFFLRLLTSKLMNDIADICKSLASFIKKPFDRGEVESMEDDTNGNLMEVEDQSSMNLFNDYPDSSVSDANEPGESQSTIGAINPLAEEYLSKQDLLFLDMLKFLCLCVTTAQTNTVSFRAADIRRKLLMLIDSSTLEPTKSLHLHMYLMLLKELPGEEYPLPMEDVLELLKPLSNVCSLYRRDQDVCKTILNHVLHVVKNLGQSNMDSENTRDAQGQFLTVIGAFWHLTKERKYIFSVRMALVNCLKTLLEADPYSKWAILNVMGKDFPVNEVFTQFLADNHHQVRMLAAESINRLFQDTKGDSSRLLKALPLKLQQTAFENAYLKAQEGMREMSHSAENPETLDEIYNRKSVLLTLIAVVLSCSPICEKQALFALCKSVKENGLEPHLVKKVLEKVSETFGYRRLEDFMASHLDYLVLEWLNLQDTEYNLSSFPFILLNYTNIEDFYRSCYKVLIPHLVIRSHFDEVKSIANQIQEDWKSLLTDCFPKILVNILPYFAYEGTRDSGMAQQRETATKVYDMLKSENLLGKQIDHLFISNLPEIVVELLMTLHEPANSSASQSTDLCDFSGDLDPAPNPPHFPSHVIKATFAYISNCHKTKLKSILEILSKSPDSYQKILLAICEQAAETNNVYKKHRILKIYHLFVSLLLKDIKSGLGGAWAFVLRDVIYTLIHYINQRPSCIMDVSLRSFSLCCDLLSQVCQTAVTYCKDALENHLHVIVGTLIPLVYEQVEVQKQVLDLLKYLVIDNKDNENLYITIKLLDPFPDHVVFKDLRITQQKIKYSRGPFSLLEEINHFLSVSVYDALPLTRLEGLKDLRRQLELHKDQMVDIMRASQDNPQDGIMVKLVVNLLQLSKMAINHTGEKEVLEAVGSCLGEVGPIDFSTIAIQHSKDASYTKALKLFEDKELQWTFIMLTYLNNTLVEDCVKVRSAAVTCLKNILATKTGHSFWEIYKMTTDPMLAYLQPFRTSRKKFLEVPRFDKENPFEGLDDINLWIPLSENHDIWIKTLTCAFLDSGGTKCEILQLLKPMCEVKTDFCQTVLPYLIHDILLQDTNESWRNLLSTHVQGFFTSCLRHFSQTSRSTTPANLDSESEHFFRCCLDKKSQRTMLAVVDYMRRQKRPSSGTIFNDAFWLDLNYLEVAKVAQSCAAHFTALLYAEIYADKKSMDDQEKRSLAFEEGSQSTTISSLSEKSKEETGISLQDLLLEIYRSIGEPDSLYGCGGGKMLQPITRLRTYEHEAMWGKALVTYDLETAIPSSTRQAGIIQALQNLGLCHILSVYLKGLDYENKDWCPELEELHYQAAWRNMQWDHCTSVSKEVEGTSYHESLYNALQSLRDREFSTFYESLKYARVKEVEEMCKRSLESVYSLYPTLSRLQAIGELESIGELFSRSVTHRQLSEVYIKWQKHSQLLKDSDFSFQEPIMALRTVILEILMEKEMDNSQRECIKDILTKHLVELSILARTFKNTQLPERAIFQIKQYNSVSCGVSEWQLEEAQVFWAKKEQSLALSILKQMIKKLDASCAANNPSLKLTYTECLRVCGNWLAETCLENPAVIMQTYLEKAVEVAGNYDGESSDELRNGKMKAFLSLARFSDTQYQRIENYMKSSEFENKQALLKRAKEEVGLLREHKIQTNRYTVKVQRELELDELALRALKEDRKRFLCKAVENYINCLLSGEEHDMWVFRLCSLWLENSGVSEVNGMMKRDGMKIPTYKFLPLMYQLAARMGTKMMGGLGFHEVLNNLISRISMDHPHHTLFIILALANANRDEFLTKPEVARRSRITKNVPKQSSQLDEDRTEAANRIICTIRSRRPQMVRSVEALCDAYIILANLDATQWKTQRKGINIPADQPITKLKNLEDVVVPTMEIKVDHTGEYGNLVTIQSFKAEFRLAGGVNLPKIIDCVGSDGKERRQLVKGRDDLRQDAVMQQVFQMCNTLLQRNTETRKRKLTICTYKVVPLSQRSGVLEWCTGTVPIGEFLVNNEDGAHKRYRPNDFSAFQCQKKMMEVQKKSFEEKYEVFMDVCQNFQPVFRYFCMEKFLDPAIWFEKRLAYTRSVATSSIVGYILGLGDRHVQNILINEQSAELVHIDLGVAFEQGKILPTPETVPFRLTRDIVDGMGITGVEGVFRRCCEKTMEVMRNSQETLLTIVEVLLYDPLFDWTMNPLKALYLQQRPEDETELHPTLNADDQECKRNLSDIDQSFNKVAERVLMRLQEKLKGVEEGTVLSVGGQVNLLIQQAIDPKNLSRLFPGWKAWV

IC50, < 200 nM:
C[C@@H]1CN(CCC(=O)Nc2ccc3c(c2)Sc2cccc(-c4cc(=O)cc(N5CCOCC5)o4)c2S3)C[C@H](C)O1 [Compound 109]
CN(C)CCNCCCN1c2ccccc2Sc2c(-c3cc(=O)cc(N4CCOCC4)o3)cccc21 [Compound 282]
N#Cc1ccc(C(=O)Nc2ccc3c(c2)Sc2cccc(-c4cc(=O)cc(N5CCOCC5)o4)c2S3)cc1 [Compound 27]
COC(=O)CCC(=O)Nc1ccc2c(c1)Sc1cccc(-c3cc(=O)cc(N4CCOCC4)o3)c1S2 [Compound 41]
O=c1cc(-c2cccc3c2Sc2ccccc2N3CCCNC2CCC(O)CC2)oc(N2CCOCC2)c1 (stereo not shown) [Compound 306]
O=C(COc1ccc2c(c1)Sc1cccc(-c3cc(=O)cc(N4CCOCC4)o3)c1S2)N1CCCCCC1 [Compound 446]
CN1CCN(CCC(=O)Nc2ccc3c(c2)Sc2cccc(-c4cc(=O)cc(N5CCOCC5)o4)c2S3)CC1 [Compound 94]
O=C(CNCC1CCCO1)Nc1ccc2c(c1)Sc1cccc(-c3cc(=O)cc(N4CCOCC4)o3)c1S2 (stereo not shown) [Compound 68]
CN1CCC(NCCCN2c3ccccc3Sc3c(-c4cc(=O)cc(N5CCOCC5)o4)cccc32)CC1 [Compound 307]
CCN(CC)CCCN1c2ccccc2Sc2c(-c3cc(=O)cc(N4CCOCC4)o3)cccc21 [Compound 244]
O=C(CCNCCCN1CCOCC1)Nc1ccc2c(c1)Sc1cccc(-c3cc(=O)cc(N4CCOCC4)o3)c1S2 [Compound 102]
CCCCNC(=O)COc1ccc2c(c1)Sc1cccc(-c3cc(=O)cc(N4CCOCC4)o3)c1S2 [Compound 407]
CN(C)CCN(C)CC(=O)Nc1ccc2c(c1)Sc1cccc(-c3cc(=O)cc(N4CCOCC4)o3)c1S2 [Compound 73]
O=C(CCN1CCN(c2ncccn2)CC1)Nc1ccc2c(c1)Cc1cccc(-c3cc(=O)cc(N4CCOCC4)o3)c1S2 [Compound 355]
CN(C)CCN1CCN(CC(=O)Nc2ccc3c(c2)Cc2cccc(-c4cc(=O)cc(N5CCOCC5)o4)c2S3)CC1 [Compound 347]
O=C(CCN1CCCN(CCO)CC1)Nc1ccc2c(c1)Sc1cccc(-c3cc(=O)cc(N4CCOCC4)o3)c1S2 [Compound 129]
COCCN1CCN(C(=O)c2ccc3c(c2)Sc2cccc(-c4cc(=O)cc(N5CCOCC5)o4)c2S3)CC1 [Compound 17]
Cc1ccccc1N1CCN(CCCN2c3ccccc3Sc3c(-c4cc(=O)cc(N5CCOCC5)o4)cccc32)CC1 [Compound 289]
O=C(COc1ccc2c(c1)Sc1cccc(-c3cc(=O)cc(N4CCOCC4)o3)c1S2)NC(CO)(CO)CO [Compound 410]
O=c1cc(-c2cccc3c2Sc2ccc(OCCN4CCN(c5ccccn5)CC4)cc2S3)oc(N2CCOCC2)c1 [Compound 399]
O=c1cc(-c2cccc3c2Sc2ccccc2N3CCCN2CCN(c3ccncc3)CC2)oc(N2CCOCC2)c1 [Compound 291]
O=C(CNCCCN1CCOCC1)Nc1ccc2c(c1)Sc1cccc(-c3cc(=O)cc(N4CCOCC4)o3)c1S2 [Compound 63]
Cc1ccc(N2CCN(CCCN3c4ccccc4Sc4c(-c5cc(=O)cc(N6CCOCC6)o5)cccc43)CC2)c(C)c1 [Compound 294]
O=C(CN1CCCC1)Nc1ccc2c(c1)Sc1cccc(-c3cc(=O)cc(N4CCOCC4)o3)c1S2 [Compound 59]
O=c1cc(-c2cccc3c2Sc2ccc(OCCN4CCOCC4)cc2S3)oc(N2CCOCC2)c1 [Compound 403]
O=C(CCNCc1ccncc1)Nc1ccc2c(c1)Sc1cccc(-c3cc(=O)cc(N4CCOCC4)o3)c1S2 [Compound 110]
O=C(COc1ccc2c(c1)Sc1cccc(-c3cc(=O)cc(N4CCOCC4)o3)c1S2)NC(CO)CO [Compound 411]
O=C(COc1ccc2c(c1)Cc1cccc(-c3cc(=O)cc(N4CCOCC4)o3)c1S2)NC[C@@H]1CCCCC[C@@H]1O [Compound 513]

— patent publication US7429660B2, “ATM inhibitors” (Kudos Pharmaceuticals Limited, priority 2003, dated 2008)
